The conditions of data set [1]: pH 2, reversed-phase HPLC. On the procedure: The octanol-water (buffer) partition coefficient of ^18F-Alakyne and ^18F-Ala-folate was determined using the standard shake-flask method. Relative lipophilicity (k’ values) was determined by HPLC with an isocratic acetonitrile-phosphoric acid buffer eluent system at pH 2.4 as described elsewhere.
In a further data set the target is T1, folate receptor (FR) (Homo sapiens, UniProt P15328).
T1 construct: endogenous in cells; host or cells: KB cells (human, from the German Collection of Microorganisms and Cell Cultures)
Nature of the data set: Displacement assay using KB cells and [^3H]folic acid. The class given is binding.

Details of data set [2]: method as in PMID 15745749. Conditions: pH 2, reversed-phase HPLC; cited from earlier work.

Like-named read-outs stand apart in the source and are kept apart here.

The Ki is the equilibrium dissociation constant of an inhibitor or competing ligand from its target. As a reminder, the IC50 is the concentration at which inhibition is half-maximal. Read a high IC50 as a need for much substance. One may read the pIC50 as the IC50 on a negative log10 scale, so that one unit is a factor of ten. High values mean a low IC50, low ones a high IC50.

T1 sequence (P15328 25-257): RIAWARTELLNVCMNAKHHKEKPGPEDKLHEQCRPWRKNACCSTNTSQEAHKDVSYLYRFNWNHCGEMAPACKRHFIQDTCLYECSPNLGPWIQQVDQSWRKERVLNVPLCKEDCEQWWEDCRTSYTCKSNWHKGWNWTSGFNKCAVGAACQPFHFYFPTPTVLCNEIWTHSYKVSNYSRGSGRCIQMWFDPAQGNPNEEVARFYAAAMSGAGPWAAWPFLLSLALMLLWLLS

On to `Nc1nc2ncc(CNc3ccc(C(=O)NC(CCC(=O)NCCOCCOCCOCCn4cc(CNC(CF)C(=O)O)nn4)C(=O)O)cc3)nc2c(=O)[nH]1` (centres unmarked) [^19F-Ala-folate], for which, in data set [1], the “k′ Value” came to 0.27. At folate receptor (FR) (Cheng-Prusoff equation with Kd ([^3H]folic acid) = 1.0 nM), the Ki was determined as 5.5 ± 0.4 nM. Also, at folate receptor (FR) (KB-cells, [^3H]folic acid), the concentration for half-maximal inhibition (IC50) was determined as 6.4 ± 0.5 nM and the pIC50 was 8.20 ± 0.05.
As for `Nc1nc(=O)c2nc(CNc3ccc(C(=O)N[C@@H](CCC(=O)O)C(=O)O)cc3)cnc2[nH]1` [native folic acid, folic acid], in data set [2], the “k′ Value” is 0.3 [5].

The values are drawn from article PMC5874726, “Comparison Study of Two Differently Clicked ^18F-Folates—Lipophilicity Plays a Key Role” (Pharmaceuticals, 2018).
